# How the values were obtained:
# [1] = molecular target: T1, human recombinant PTP1B (1–302) (Homo sapiens, UniProt P18031); experiment: PTP1B enzymatic assay (p-NPP hydrolysis; preliminary screening and IC50); format: biochemical; settings: for Effect on PTP1B activity in preliminary screening: 20 µM of each compound, 30 min; for IC50: 2.5 mM p-NPP, pH 7.0, 37 °C, mean ± SD (n = 3), read-out: IC50 values determined on PTP1B
# T1 construct: human recombinant PTP1B (1–302)
# T1 sequence (P18031 1-302): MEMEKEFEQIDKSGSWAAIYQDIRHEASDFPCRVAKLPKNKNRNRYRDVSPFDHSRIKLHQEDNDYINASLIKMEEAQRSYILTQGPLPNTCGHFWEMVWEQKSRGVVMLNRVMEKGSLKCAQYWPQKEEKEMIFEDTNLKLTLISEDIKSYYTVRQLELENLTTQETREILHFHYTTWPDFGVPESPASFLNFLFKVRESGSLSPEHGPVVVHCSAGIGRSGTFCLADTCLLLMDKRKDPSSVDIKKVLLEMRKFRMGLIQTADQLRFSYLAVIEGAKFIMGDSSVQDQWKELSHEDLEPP
# Method: We performed enzymatic assays as previously described. For each assay, an aliquot of human recombinant PTP1B (1–302) was added in the assay buffer (0.075 M β,β-dimethylglutarate pH 7.0 containing 1 mM EDTA, 0.1 mM DTT and a p-nitrophenylphosphate (p-NPP) (Chemcruz, Santa Cruz Biotechnology (Santa Cruz, CA, USA)). The reactions were performed at 37 °C in a final volume of 1 mL. After adequate time (30 min) of incubation, the reactions were stopped adding 2 mL of 0.1 M KOH in each sample. The released amount of p-nitrophenol, product of the reaction, was determined by measuring the absorbance at 400 nm in a 1 cm pathlength cuvette.
# The IC50 value of compounds against PTP1B was determined by measuring the hydrolysis rate of the enzyme in the presence of a fixed substrate concentration (2.5 mM p-NPP) and increasing inhibitor concentrations (generally 14–16 different concentrations). Each test was carried out in triplicate. Experimental data were normalized respect to control samples and then fitted using a non-linear fitting software, using the following equation: Vi/V0=Max−Min/1+x/IC50^slope+Min where the Vi/V0 value represents the relative activity calculated in presence of each inhibitor concentration; the maximum and minimum value of the activity are represented by “Max” and “Min”, respectively; “x” is the concentration of the inhibitor; IC50 is the inhibitor concentration able to decrease the enzymatic activity up to 50%; “slope” represents the slope of the curve in the transition zone.
# Figure 2 Preliminary screening assay on PTP1B. All assays were started by diluting an aliquot of PTP1B in the assay solution containing substrate alone (control test) or substrate and an aliquot of each compound (20 µM, final concentration). After 30 min, the reactions were stopped by adding a concentrated KOH solution. The enzyme activity was determined by measuring the amount of p-nitrophenol that was released in each sample using a spectrophotometer. Data obtained were normalized respect to control sample. […] Statistical analysis was carried out using one way ANOVA followed by Tukey’s HSD test for pairwise comparisons. Statistics have been drawn on raw data and compare samples to control (Ctr). * p < 0.05; ** p < 0.01.
# Figure 3 Determination of the IC50 values with compounds 3, 8a, 8b, 9a and 9b. An aliquot of PTP1B enzyme was diluted in the presence of increasing concentration of the compounds. The activity of PTP1B was determined by measuring the absorbance of the sample at 400 nm, using a spectrophotometer. Data obtained were normalized respect to the control sample and analysed using a non-linear fitting software.
# human recombinant AR = molecular target: T2, human recombinant AR (Homo sapiens, UniProt P15121); experiment: AR enzymatic assay (NADPH oxidation, L-idose substrate); format: biochemical; settings: for remaining activity at 43 µM: 43 µM (maximal concentration used); for % residual activity of human AR / remaining activity at 210 µM: 210 µM (maximal concentration used); for % residual activity of human AR: 210 µM
# T2 construct: made in house
# Method: The human recombinant AR, purified to electrophoretic homogeneity as described, was used as target enzyme. AR activity was determined at 37 °C as previously described by evaluating the decrease in absorbance at 340 nm linked to NADPH oxidation using a Biochrom Libra S60 spectrophotometer. The standard assay mixture contained 0.25 M sodium phosphate buffer pH 6.8, 0.18 mM NADPH, 0.42 M ammonium sulfate, 0.5 mM EDTA and 4.7 mM D,L-glyceraldehyde. One unit of enzyme activity is the amount that catalyses the conversion of 1 µmol of substrate/min in the above assay conditions. For AR inhibition studies, 0.8 mM L-idose was used as substrate in the conditions described above, in the presence of 10 mU of enzyme and of a final concentration of DMSO of 0.7% (v/v).
# AR = tested on: AR; design: method as in PMID 34677434; settings: cited from earlier work
# HepG2 cells = tested on: HepG2 cells; design: method as in PMID 34677434; settings: cited from earlier work
# PTP1B = tested on: PTP1B; design: method as in PMID 34677434; settings: cited from earlier work
# GST–PTP1B fusion protein = tested on: GST–PTP1B fusion protein; design: method as in PMID 27064611; settings: different pH value, read-out: IC50 on PTP1B previously determined; cited from earlier work
# [2] = read-out: % residual activity of human AR
smiles,measurement,setting,value
CCCCC[C@H](O)[C@H](O)CC[C@H](CCCC)OC(C)=O (relative stereo) [Compound 7b],Effect on PTP1B activity in preliminary screening,[1],loss of activity
"CCCCC[C@@H](O)[C@@H](O)CC[C@@H](O)CCCC [Compound 4a, (5S,8S,9R)-tetradecane-5,8,9-triol]",Effect on PTP1B activity in preliminary screening,[1],loss of activity
same,remaining activity at 43 µM,human recombinant AR; [2],97 ± 4%
CCCCC[C@@H](O)[C@@H](O)CC[C@H](CCCC)OC(C)=O (relative stereo) [Compound 7a],Effect on PTP1B activity in preliminary screening,[1],loss of activity
CCCCC[C@@H](O)[C@H](CC[C@H](CCCC)OC(C)=O)OP(=O)(O)O (relative stereo) [Compound 9a],Effect on PTP1B activity in preliminary screening,[1],reducing PTP1B activity
same,IC50,[1],83 ± 15 µM
same,remaining activity at 107 µM,"human recombinant AR; 107 µM (maximal concentration used), read-out: % residual activity of human AR",86 ± 2%
CCCCC[C@H](O)[C@@H](CC[C@H](CCCC)OC(C)=O)OP(=O)(O)O (relative stereo) [Compound 9b],Effect on PTP1B activity in preliminary screening,[1],reducing PTP1B activity
same,IC50,[1],63 ± 14 µM
same,% residual activity of human AR,human recombinant AR,74 ± 6%
same,remaining activity at 210 µM,human recombinant AR; [2],77%
CCCCC[C@H](OP(=O)(O)O)[C@H](O)CC[C@H](CCCC)OC(C)=O (relative stereo) [Compound 8b],Effect on PTP1B activity in preliminary screening,[1],reducing PTP1B activity
same,IC50,[1],37.1 ± 6.5 µM
same,% residual activity of human AR,human recombinant AR,74 ± 8%
same,remaining activity at 210 µM,human recombinant AR; [2],76%
"CCCCCCCCCCCCCCC(OP(=O)(O)O)C(O)CCC(O)C(O)CCC(O)CCCCCCC(=O)NCC(=O)O (stereo not shown) [Phosphoeleganin, phosphoeleganin]",Type of AR inhibition,AR,mixed-type inhibitor
same,Activity in HepG2 cells,HepG2 cells,insulin-sensitizing activity
same,Type of PTP1B inhibition,PTP1B,pure non-competitive inhibitor
same,IC50,[1],0.7 ± 0.1 µM
same,IC50,GST–PTP1B fusion protein,11 ± 2 µM
O=C(O)CNC(=O)CCCCCC[C@H](O)CCCO [Compound 2],Effect on PTP1B activity in preliminary screening,[1],loss of activity
same,AR inhibition (in words),human recombinant AR,ineffective
same,remaining activity at 71 µM,"human recombinant AR; 71 µM (maximal concentration used), read-out: % residual activity of human AR",103 ± 4%
"CCCCC[C@H](O)[C@H](O)CC[C@@H](O)CCCC [Compound 4b, (5S,8R,9S)-tetradecane-5,8,9-triol]",Effect on PTP1B activity in preliminary screening,[1],loss of activity
same,remaining activity at 43 µM,human recombinant AR; [2],98 ± 3%

# From paper PMC8950868, “Identifying Human PTP1B Enzyme Inhibitors from Marine Natural Products: Perspectives for Developing of Novel Insulin-Mimetic Drugs” (Pharmaceuticals, 2022)
